Test results taken from the Deep4Chem optical property database.
Values joined by “and” are separate entries in the source; they are usually repeats but may differ in a detail not shown here. Identical values can stand only once. Blank lines part the entries; values can stand above or below the compound they belong to.

Assay: solvent given as SMILES

SMILES: CC\C=C/C=C/C=C/C=C\CCCCCCCC(=O)O
fluorescence lifetime (in C1COCCO1): 3.2 ns
fluorescence lifetime (in CCCCCC): 4.5 ns
fluorescence lifetime (in CCCCCCCCCC): 5.2 ns
fluorescence lifetime (in CCCCO): 2.5 ns
fluorescence lifetime (in CCOCC): 5.1 ns
fluorescence lifetime (in CO): 1.3 ns
fluorescence lifetime (in ClC(Cl)Cl): 1.5 ns

SMILES: Cc1c(C)c(B(c2c(C)c(C)c(C#N)c(C)c2C)c2c(C)c(C)c(N3c4ccccc4Oc4ccccc43)c(C)c2C)c(C)c(C)c1C#N
fluorescence lifetime (in c1ccc([Si](c2ccccc2)(c2ccc(-n3c4ccccc4c4ccccc43)cc2)c2ccc(-n3c4ccccc4c4ccccc43)cc2)cc1): 32 ns

SMILES: CCCCCCC(CCCCCC)N1C(=O)c2cccc3c(-c4ccc(C#N)cc4)ccc(c23)C1=O
fluorescence lifetime (in CCCCCC): 1.02 ns
fluorescence lifetime (in CCCCCCCCCCCCCC): 0.994 ns
fluorescence lifetime (in CCCCCCCCCCCO): 2.12 ns
fluorescence lifetime (in CCCCO): 2.21 ns
fluorescence lifetime (in CN(C)C=O): 2.15 ns
fluorescence lifetime (in Cc1ccccc1): 1.16 ns
fluorescence lifetime (in ClC(Cl)Cl): 1.34 ns

SMILES: COC(=O)[C@]12N=N[C@](C(=O)OC)(C3C4C5C4C5C31)C1C3C4C3C4C12 (some centres undefined)
fluorescence lifetime (in CC#N): 166 ns

SMILES: Cn1ccc(=O)n(C)c1=O
fluorescence lifetime (in CC#N): 0.0001 ns

SMILES: COc1ccc(C#Cc2ccc(C#Cc3ccc(P(=O)(c4ccc(C#Cc5ccc(C#Cc6ccc(OC)cc6)cc5)cc4)c4ccc(C#Cc5ccc(C#Cc6ccc(OC)cc6)cc5)cc4)cc3)cc2)cc1
fluorescence lifetime (in C1CCCCC1): 0.58 ns
fluorescence lifetime (in C1COCCO1): 0.69 ns
fluorescence lifetime (in CC#N): 1.14 ns
fluorescence lifetime (in CCO): 1.02 ns
fluorescence lifetime (in CS(C)=O): 1.24 ns
fluorescence lifetime (in ClC(Cl)Cl): 0.74 ns
fluorescence lifetime (in ClCCl): 0.85 ns

SMILES: C(=C\c1ccc(N(c2ccc(/C=C/c3ccc(N(c4ccccc4)c4ccccc4)cc3)cc2)c2ccc(/C=C/c3ccc(/C=C/c4ccc(N(c5ccc(/C=C/c6ccc(N(c7ccccc7)c7ccccc7)cc6)cc5)c5ccc(/C=C/c6ccc(N(c7ccccc7)c7ccccc7)cc6)cc5)cc4)c4nsnc34)cc2)cc1)/c1ccc(N(c2ccccc2)c2ccccc2)cc1
fluorescence lifetime (in C1CCOC1): 1.83 ns
fluorescence lifetime (in CCOC(C)=O): 1.85 ns
fluorescence lifetime (in Cc1ccccc1): 3.61 ns
fluorescence lifetime (in ClC(Cl)Cl): 2.08 ns
fluorescence lifetime (in ClCCl): 1.86 ns

SMILES: COc1cc2c(cc1-c1ccc(C(F)(F)F)cc1)Cc1c3c(c4c(c1-2)-c1cc(OC)c(-c2ccc(C(F)(F)F)cc2)cc1C4)C(=O)N(CCC(C)C)C3=O
fluorescence lifetime (in C1CCOC1): 2.43 ns

SMILES: C(=C\c1nc2ccccc2[nH]1)/c1ccc(/C=C/c2nc3ccccc3[nH]2)cc1
fluorescence lifetime (in C1CCOC1): 1.02 ns
fluorescence lifetime (in CC#N): 1.12 ns
fluorescence lifetime (in CC(C)=O): 1.07 ns
fluorescence lifetime (in CN(C)C=O): 0.997 ns
fluorescence lifetime (in CO): 1.06 ns
fluorescence lifetime (in CS(C)=O): 0.919 ns

SMILES: CCCCCCC(CCCCCC)N1C(=O)c2cccc3c(-c4ccc(N(C)C)cc4)ccc(c23)C1=O
fluorescence lifetime (in CCCCCC): 3.47 ns
fluorescence lifetime (in CCCCCCCCCCCCCC): 3.61 ns
fluorescence lifetime (in CCCCCCCCCCCO): 5.51 ns
fluorescence lifetime (in CCCCO): 3.5 ns
fluorescence lifetime (in Cc1ccccc1): 5.12 ns
fluorescence lifetime (in ClC(Cl)Cl): 6.99 ns

Next, values leading:

fluorescence lifetime (in ClC(Cl)Cl): 1.4 ns
SMILES: CCCCc1cc(-c2cccc(COC)c2)oc1-c1cccc(-c2oc(-c3cccc(COC)c3)cc2CCCC)c1

fluorescence lifetime (in CO): 1.63 ns
SMILES: CCN(CC)c1ccc(/C=N/Nc2ccc(C#N)cc2)c(O)c1

fluorescence lifetime (in CO): 0.43 ns
fluorescence lifetime (in ClC(Cl)Cl): 2.14 ns
SMILES: CC[n+]1c(C=C2C(=O)C(C=C3N(C)c4ccc(Cl)cc4C3(C)C)=C2[O-])[se]c2ccccc21

fluorescence lifetime (in CC#N): 0.99 ns
SMILES: Cc1ccc(-c2ccc(/C=C/c3ccc(F)cc3)cn2)nc1

fluorescence lifetime (in ClCCl): 1.78 ns
SMILES: CCCCn1c(-c2ccc(-c3nnc(-c4ccc5ccccc5c4)o3)cc2)nc2c3ccccc3c3ccccc3c21

fluorescence lifetime (in CC1CCCCC1): 3.3 ns
fluorescence lifetime (in CC#N): 3.6 ns
SMILES: C(=C\c1c2ccccc2cc2ccccc12)/c1ccc2ccccc2c1

fluorescence lifetime (in ClC(Cl)Cl): 0.63 ns
SMILES: CCc1ccc(-n2c3ccccc3c3cc4c(cc32)c2ccccc2n4-c2ccc(CC)s2)s1

fluorescence lifetime (in CC#N): 5.6 ns
SMILES: Cc1cc(=O)oc2ccc3ccc(O)cc3c12

fluorescence lifetime (in ClC(Cl)Cl): 1.11 ns
SMILES: Fc1cccc(C2=Cc3ccc4ccccc4[n+]3[B-](F)(F)O2)c1

fluorescence lifetime (in ClC(Cl)Cl): 4.93 ns
SMILES: CC(C)(C)N1C(=O)c2c(cc3ccc4cccc5ccc2c3c45)C1O (centres undefined)

fluorescence lifetime (in CC#N): 1.74 ns
fluorescence lifetime (in CC(C)O): 3.26 ns
fluorescence lifetime (in CCCCCCCCO): 3.42 ns
fluorescence lifetime (in CCCCCCO): 3.41 ns
fluorescence lifetime (in CCCCO): 3.37 ns
fluorescence lifetime (in CCCO): 3.27 ns
fluorescence lifetime (in CCO): 2.96 ns
fluorescence lifetime (in CN(C)C=O): 2.33 ns
fluorescence lifetime (in CO): 2.5 ns and 2.46 ns
fluorescence lifetime (in O): 1.74 ns and 1.75 ns
fluorescence lifetime (in [2H]O[2H]): 1.84 ns
SMILES: CCN(CC)c1ccc2c(-c3ccccc3C(=O)[O-])c3ccc(=[N+](CC)CC)cc-3oc2c1

fluorescence lifetime (in CC#N): 10.3 ns
SMILES: [NH3+]C1(c2ccc3cc(O)ccc3c2)C2CC3CC(C2)CC1C3 (centres undefined)

fluorescence lifetime (in CC#N): 4.07 ns
SMILES: COc1ccc(-c2csc(/C(C#N)=C/c3c(Cl)cccc3Cl)n2)cc1

fluorescence lifetime (in ClC(Cl)Cl): 0.58 ns
SMILES: CCCCCCn1c2cc(/C=C(\C#N)c3ccccc3)ccc2c2ccc(/C=C(\C#N)c3ccccc3)cc21

fluorescence lifetime (in C1CCOC1): 2.3 ns
SMILES: COC(=O)c1ccc(-c2ccc3c(c2)C(=O)c2cc(-c4ccc(C(=O)OC)cc4)ccc2-3)cc1
